Assay results from ChEMBL document CHEMBL1128476, “Synthesis and pharmacological evaluation of 2'-hydroxychalcones and flavones as inhibitors of inflammatory mediators generation” (J Med Chem, 1995).

Columns and labels:
Rattus norvegicus [1] = species: Rattus norvegicus; assay: Percent inhibition was evaluated by measuring the inhibition of microsomal lipid peroxidation induced by [Fe(3+)]-ADP/NADPH at 100 uM concentration; type: functional
Homo sapiens [2] = species: Homo sapiens; assay: Inhibitory activity against elastase release by human neutrophils; type: functional; set-up: concentration or dose not given beside the values
[3] = target: T1, Phospholipase A2, membrane associated (Homo sapiens) (UniProt P14555); assay: Inhibitory activity against synovial human recombinant phospholipase (hr-PLA2) at 100 uM concentration
T1 sequence (whole entry): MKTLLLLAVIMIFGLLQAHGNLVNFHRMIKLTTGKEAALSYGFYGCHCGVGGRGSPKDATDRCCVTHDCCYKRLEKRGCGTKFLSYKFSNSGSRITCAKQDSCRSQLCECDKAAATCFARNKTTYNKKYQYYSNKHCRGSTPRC

Rattus norvegicus [4] = species: Rattus norvegicus; assay: IC50 value was evaluated by measuring the 50% inhibition of microsomal lipid peroxidation induced by CCl4/NADPH.; type: functional
Rattus norvegicus [5] = species: Rattus norvegicus; assay: Percent inhibition was evaluated by measuring the inhibition of microsomal lipid peroxidation induced by CCl4/NADPH.p < 0.01; type: functional; conditions: dose or concentration not given here
Homo sapiens [6] = species: Homo sapiens; assay: Inhibitory activity against TXB2 generation at 100 uM concentration; type: functional
Rattus norvegicus [7] = species: Rattus norvegicus; assay: Percent inhibition was evaluated by measuring the inhibition of peroxyl scavenging activity at 100 uM concentration; type: functional
Rattus norvegicus [8] = species: Rattus norvegicus; assay: Inhibition of microsomal lipid peroxidation induced by [Fe(2+)]/ascorbate at 100 uM concentration; type: functional
[9] = target: T1, Phospholipase A2, membrane associated (Homo sapiens); assay: Inhibitory activity against synovial human recombinant phospholipase (hr-PLA2) at 1 mM concentration
Rattus norvegicus [10] = species: Rattus norvegicus; assay: Inhibition of microsomal lipid peroxidation induced by CCl4/NADPH at 100 uM concentration; type: functional
Rattus norvegicus [11] = species: Rattus norvegicus; assay: Inhibition of microsomal lipid peroxidation induced by [Fe(3+)]-ADP/NADPH at 100 uM concentration; type: functional
Rattus norvegicus [12] = species: Rattus norvegicus; assay: Percent inhibition was evaluated by measuring the inhibition of peroxyl scavenging activity; type: functional; conditions: dose or concentration not given here
Rattus norvegicus [13] = species: Rattus norvegicus; assay: Inhibition of microsomal lipid peroxidation induced by CCl4/NADPH; type: functional; conditions: dose or concentration not given here
Rattus norvegicus [14] = species: Rattus norvegicus; assay: Percent inhibition was evaluated by measuring the inhibition of microsomal lipid peroxidation induced by CCl4/NADPH; type: functional; conditions: dose or concentration not given here
Rattus norvegicus [15] = species: Rattus norvegicus; assay: IC50 value was evaluated by measuring the 50% inhibition of microsomal lipid peroxidation induced by [Fe(3+)]-ADP/NADPH.; type: functional
Rattus norvegicus [16] = species: Rattus norvegicus; assay: Percent inhibition was evaluated by measuring the inhibition of microsomal lipid peroxidation induced by CCl4/NADPH.; type: functional; conditions: dose or concentration not given here
Rattus norvegicus [17] = species: Rattus norvegicus; assay: Inhibition of peroxyl scavenging activity at 100 uM concentration; type: functional
Rattus norvegicus [18] = species: Rattus norvegicus; assay: Inhibition of microsomal lipid peroxidation induced by CCl4/NADPH.; type: functional
Rattus norvegicus [19] = species: Rattus norvegicus; assay: Inhibition of microsomal lipid peroxidation induced by [Fe(3+)]-ADP/NADPH.; type: functional
Rattus norvegicus [20] = species: Rattus norvegicus; assay: Inhibition of microsomal lipid peroxidation induced by [Fe(3+)]-ADP/NADPH in rat liver; type: functional
Rattus norvegicus [21] = species: Rattus norvegicus; assay: IC50 value was evaluated by measuring the 50% inhibition of peroxyl scavenging activity.; type: functional
Rattus norvegicus [22] = species: Rattus norvegicus; assay: Inhibition of microsomal lipid peroxidation induced by [Fe(2+)]/ascorbate in rat liver; type: functional
Rattus norvegicus [23] = species: Rattus norvegicus; assay: Inhibition of microsomal lipid peroxidation induced by [Fe(3+)]-ADP/NADPH at 100 uM concentration in rat liver; type: functional
Rattus norvegicus [24] = species: Rattus norvegicus; assay: (§1) Inhibition of microsomal lipid peroxidation induced by CCl4/NADPH in rat liver; type: functional
Rattus norvegicus [25] = species: Rattus norvegicus; assay: Inhibition of microsomal lipid peroxidation induced by [Fe(2+)]/ascorbate at given 100 uM concentration in rat liver; type: functional
Rattus norvegicus [26] = species: Rattus norvegicus; assay: as §1; type: functional; conditions: dose or concentration not given here

Compound	Inhibition (Homo sapiens [2]) [%]	inhibition [3] [%]	Inhibition (Homo sapiens [6]) [%]	inhibition (Rattus norvegicus [7]) [%]	inhibition (Rattus norvegicus [8]) [%]	inhibition (Rattus norvegicus [11]) [%]	also measured
COc1ccc(/C=C/C(=O)c2ccc(OC)c(OC)c2O)cc1OC	87.6	55	77.2	40	0		inhibition (Rattus norvegicus [1]): 33.1%; IC50 (Rattus norvegicus [4]): 68.6 µM; inhibition (Rattus norvegicus [5]): 57.2%
CCN(CC)CCCC(C)Nc1c2ccc(Cl)cc2nc2ccc(OC)cc12 (centres undefined)							inhibition [9]: 48.9%
COc1ccc2c(c1)c(CC(=O)O)c(C)n2C(=O)c1ccc(Cl)cc1 [INDOMETHACIN]	31.9		100				
COc1ccc(/C=C/C(=O)c2ccc(C)c(C)c2O)cc1OC	39.6	27.5	28.1		8.2	51	IC50 (Rattus norvegicus [10]): 95 µM; inhibition (Rattus norvegicus [12]): 28.8%; inhibition (Rattus norvegicus [13]): 55.3%
COc1ccc(-c2cc(=O)c3ccc(C)c(C)c3o2)cc1OC	9.6	25.7	37.4	37.4	0	89.6	inhibition (Rattus norvegicus [14]): 26.2%; IC50 (Rattus norvegicus [15]): 29.6 µM
COc1ccc(-c2cc(=O)c3ccc(OC)c(OC)c3o2)cc1OC	41.7	46.2	38.6		0	93.2	inhibition (Rattus norvegicus [16]): 58.2%; inhibition (Rattus norvegicus [17]): 30%; IC50 (Rattus norvegicus [18]): 56.6 µM; IC50 (Rattus norvegicus [19]): 62.6 µM
CCCOC(=O)c1cc(O)c(O)c(O)c1 [PROPYL GALLATE]				100			IC50 (Rattus norvegicus [20]): 8 µM; IC50 (Rattus norvegicus [21]): 33.9 µM; IC50 (Rattus norvegicus [22]): 4.9 µM; inhibition (Rattus norvegicus [23]): 100%; IC50 (Rattus norvegicus [24]): 4.5 µM; inhibition (Rattus norvegicus [25]): 100%; inhibition (Rattus norvegicus [26]): 100%
